Assay results published in a melting point compilation (Tetko et al.; mined from patent text by program, amines drawn as free bases though some values may be those of a salt).

Structure (SMILES)	melting point
CC(=O)OC1NC(=O)C2=C1CN=C(c1ccccc1Cl)c1cc(Cl)ccc12 (stereo not given)	172 to 174 °C
CN1C(=O)[C@H](NC(=O)CCc2ccccc2Cl)N=C(c2ccccc2)c2ccccc21	158 to 160 °C
OCc1c2c(nn1-c1ccc(F)cc1)CCCCC2	177 to 178 °C
O=C(O)c1ccccc1-c1nc(-c2cc(C(F)(F)F)cc(C(F)(F)F)c2)no1	178 to 182 °C
Cc1c(NC(=O)c2ccc(OC[C@@H]3CCCO3)cc2)ccc2cc(CNCC(C)(C)C)[nH]c12	168 °C
O=CN1CCN(c2c(F)c(F)c3c(=O)c(C(=O)O)cn(C4CC4)c3c2F)CC1	290 to 297 °C
O=C(Cc1ccccc1)c1ccc(SC(F)F)cc1	42 to 45 °C
Cc1nn(-c2cc(O)c(Cl)cc2Cl)c(C)c1Cl	172 to 174 °C
O=C(N[C@H]1CC[C@H](CCN2CCN(c3nccc4c3CCO4)CC2)CC1)C1(O)CC1	174 °C
CC(=CC(CNC(=O)c1cccnc1)=NO)C(C)[N+](=O)[O-] (stereo not given)	137 to 139 °C
Fc1ccc(C2=Nc3cccnc3Nc3ccccc32)cc1	203 to 205 °C
O=c1n(CCCF)nnn1-c1ccc(OCc2ccc(F)cc2)cc1F	86 to 88 °C
CCN1CCN(CCCOc2cc3ncc(C#N)c(Nc4cc(OC)c(Cl)cc4Cl)c3cc2OC)CC1	102 to 104 °C
O=S1(=O)N=C(NC2CCC2)Nc2cc(Cl)c(Cl)cc21	320 to 326 °C
CS(=O)(=O)c1ccc(-c2oc(CCC(N)=O)nc2-c2ccc(F)cc2)cc1	193 to 195 °C
CCc1ccc2c(c1)N(Cc1ccc(-c3ccccc3C#N)cc1)C(=O)CC2(C)C	171 to 172 °C
CC(C)(C)OC(=O)N1CCN(c2ccc(Oc3cc(Cl)ccc3N)cc2)CC1	95 to 96 °C
Cc1nnc(-c2cc3c(OC[C@@H](O)CN4CCC(c5ccc6ccccc6c5)CC4)cccc3[nH]2)o1	215 to 217 °C
Cc1cc2cc([N+](=O)[O-])ccc2o1	93 to 95 °C
CC(=O)NC[C@H]1CN(c2ccc(-n3nccc3-c3ccc(F)cc3)c(F)c2)C(=O)O1	111 to 113 °C
COc1cc2c(c(Cl)c1Cl)SCC2O (stereo not given)	122 to 124 °C
O=C1OC(CCCCN2CCN(c3ccccc3)CC2)CN1c1ccccc1 (stereo not given)	83 to 85 °C
c1ccc2c(c1)CNc1ccccc1S2	145 to 148 °C
CC(=O)Cc1ccc(CC2SC(=N)NC2=O)cc1 (stereo not given)	196 to 198 °C

The remaining lines, values ahead:

melting point	Structure (SMILES)
80 to 82 °C	CC(C)(C)OC(=O)NCCOC(=O)COc1ccc(CCCCNC(N)=NC(=O)c2nc(Cl)c(N)nc2N)cc1
71 °C	COC=C(C(=O)OC)c1ccccc1CSc1ccccc1
104 to 105 °C	CCOC(=O)N(CC(=O)NCCc1ccc(OC)c(OC)c1)c1cccc(C(N)=O)c1
186 to 189 °C	COc1ccc(N2CCN(CC(=O)Nc3nc(-c4ccccc4)cs3)CC2)cc1
143 °C	CCOC(=O)NCC(O)c1cccc2c1CCN2C(=O)c1ccccc1 (stereo not given)
192 to 193 °C	COc1cc(OC)nc(NC(=O)NS(=O)(=O)c2cc(N)ccc2C(=O)N(C)C)n1
148 to 149 °C	COC(=O)c1ccc2cc(OCc3ccccc3)ccc2c1
172 to 175 °C	COc1ccc2c(C(=S)N(C)CC(=O)N(C)C)cccc2c1C(F)(F)F
140 °C	CC(C)(C)CC(C)(C)NCC(O)COc1ccccc1C(=O)Nc1cccc2[nH]ccc12 (stereo not given)
122 to 124 °C	COC(=O)c1ccc(OC)c2c1OCO2
96 to 98 °C	CCOC(=O)C1=CC(CF)(CF)Oc2ccc([N+](=O)[O-])cc21
112 to 114 °C	COc1ccc(Oc2ccccc2)c(N)c1
61 to 63 °C	CCOC(=O)C(=O)Nc1cccc(C)n1
167 to 168 °C	COC(=O)c1nc2ccccc2c(N)c1C(=O)OC
170 to 172 °C	COc1ccc2nnc3ccc(OC)cc3c2c1
122 °C	CCOC(=O)C1=C(COCCN)NC=C(C(=O)OC)C1c1cccc(C(F)(F)F)c1Cl (stereo not given)
